Data as given in ChEMBL document CHEMBL1126483 (Bioorg Med Chem Lett, 1993).
Peptide text beside a SMILES is read from it.

These compounds were tested against Neurotensin receptor type 1 (Mus musculus) (UniProt O88319) (assay: Tested for change in binding affinity to Neurotensin (NT) receptor in neonatal mouse whole brain (minus cerebellum)). Settings: not given.
Assay type: tissue-based

Sequence of Neurotensin receptor type 1 (Mus musculus) (O88319 whole entry): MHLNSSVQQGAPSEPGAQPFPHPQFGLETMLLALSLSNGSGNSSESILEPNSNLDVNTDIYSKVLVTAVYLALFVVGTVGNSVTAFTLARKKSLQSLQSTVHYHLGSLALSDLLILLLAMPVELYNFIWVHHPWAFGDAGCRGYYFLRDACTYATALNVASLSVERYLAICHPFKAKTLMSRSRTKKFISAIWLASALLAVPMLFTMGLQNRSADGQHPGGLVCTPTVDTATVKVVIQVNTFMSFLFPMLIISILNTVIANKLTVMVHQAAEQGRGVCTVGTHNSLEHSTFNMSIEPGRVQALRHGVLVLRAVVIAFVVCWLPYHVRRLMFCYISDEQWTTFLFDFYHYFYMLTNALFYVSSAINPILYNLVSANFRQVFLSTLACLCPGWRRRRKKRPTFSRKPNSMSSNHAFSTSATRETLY

Point of comparison: `CC[C@@H](C)[C@H](NC(=O)[C@H](Cc1ccc(O)cc1)NC(=O)[C@@H]1CCCN1C(=O)[C@H](C)NC(=O)[C@@H](N)CCCN=C(N)N)C(=O)N[C@@H](CC(C)C)C(=O)O`, Ki ratio 120. Against it:
- CC[C@@H](C)[C@H](NC(=O)[C@H](C)NC(=O)[C@@H]1CCCN1C(=O)[C@H](CCCN=C(N)N)NC(=O)[C@@H](N)CCCN=C(N)N)C(=O)N[C@@H](CC(C)C)C(=O)O — higher, 6100
- CC[C@@H](C)[C@H](NC(=O)[C@H](Cc1ccc(O)cc1)NC(=O)[C@@H]1CCCN1C(=O)[C@H](CCCN=C(N)N)NC(=O)[C@@H](N)CCCN=C(N)N)C(=O)N[C@@H](C)C(=O)O — higher, 11000
- CC[C@@H](C)[C@H](NC(=O)[C@H](Cc1ccc(O)cc1)NC(=O)[C@H](C)NC(=O)[C@H](CCCN=C(N)N)NC(=O)[C@@H](N)CCCN=C(N)N)C(=O)N[C@@H](CC(C)C)C(=O)O — lower, 50
- CC[C@@H](C)[C@H](NC(=O)[C@H](Cc1ccc(O)cc1)NC(=O)[C@@H]1CCCN1C(=O)[C@H](CCCN=C(N)N)NC(=O)[C@H](C)N)C(=O)N[C@@H](CC(C)C)C(=O)O — lower, 14
- CC(C)C[C@H](NC(=O)[C@H](C)NC(=O)[C@H](Cc1ccc(O)cc1)NC(=O)[C@@H]1CCCN1C(=O)[C@H](CCCN=C(N)N)NC(=O)[C@@H](N)CCCN=C(N)N)C(=O)O (H-RRPYAL-OH) — higher, 250
- CC[C@@H](C)[C@H](NC(=O)[C@H](C)NC(=O)[C@@H]1CCCN1C(=O)[C@H](CCCN=C(N)N)NC(=O)[C@@H](N)CCCN=C(N)N)C(=O)N[C@@H](C)C(=O)O — higher, 220000

Each compound was assayed against Neurotensin receptor type 1 (Mus musculus, UniProt O88319) (assay: Inhibition of specific binding of [125I]-Tyr3-NT(1-13) to NT receptors in neonatal mouse whole brain (minus cerebellum)). Settings: not given.
Sequence of Neurotensin receptor type 1 (O88319 whole entry): as above
Assay type: tissue-based

Point of comparison: `CC[C@H](C)[C@H](NC(=O)[C@H](C)NC(=O)[C@@H]1CCCN1C(=O)[C@H](CCCN=C(N)N)NC(=O)[C@@H](N)CCCN=C(N)N)C(=O)N[C@@H](C)C(=O)O`, Ki 3900 nM. Against it:
- CC[C@H](C)[C@H](NC(=O)[C@H](Cc1ccc(O)cc1)NC(=O)[C@@H]1CCCN1C(=O)[C@H](CCCN=C(N)N)NC(=O)[C@H](CCCN=C(N)N)NC(=O)[C@@H]1CCCN1C(=O)[C@H](CCCCN)NC(=O)[C@H](CC(N)=O)NC(=O)[C@H](CCC(=O)O)NC(=O)[C@H](Cc1ccc(O)cc1)NC(C)=O)C(=O)N[C@@H](CC(C)C)C(=O)O (Ac-YENKPRRPYIL-OH) — 19000-fold lower, 0.21 nM
- CC[C@H](C)[C@H](NC(=O)[C@H](Cc1ccc(O)cc1)NC(=O)[C@@H]1CCCN1C(=O)[C@H](CCCNC(=N)N)NC(=O)[C@H](CCCNC(=N)N)NC(=O)[C@@H]1CCCN1C(=O)[C@H](CCCCN)NC(=O)[C@H](CC(N)=O)NC(=O)[C@H](CCC(=O)O)NC(=O)[C@H](Cc1ccc(O)cc1)NC(=O)[C@H](CC(C)C)NC(C)=O)C(=O)N[C@@H](CC(C)C)C(=O)O — 35000-fold lower, 0.11 nM
- CC[C@H](C)[C@H](NC(=O)[C@H](Cc1ccc(O)cc1)NC(=O)[C@H](C)NC(=O)[C@H](CCCN=C(N)N)NC(=O)[C@@H](N)CCCN=C(N)N)C(=O)N[C@@H](CC(C)C)C(=O)O — 4200-fold lower, 0.92 nM
- CC[C@H](C)[C@H](NC(=O)[C@H](Cc1ccc(O)cc1)NC(=O)[C@@H]1CCCN1C(=O)[C@H](CCCNC(=N)N)NC(=O)[C@H](CCCNC(=N)N)NC(=O)[C@@H]1CCCN1C(=O)[C@H](CCCCN)NC(C)=O)C(=O)N[C@@H](CC(C)C)C(=O)O — far lower, 0.024 nM
- CC[C@H](C)[C@H](NC(=O)[C@H](Cc1ccc(O)cc1)NC(=O)[C@@H]1CCCN1C(=O)[C@H](CCCNC(=N)N)NC(=O)[C@@H](N)CCCNC(=N)N)C(=O)N[C@@H](C)C(=O)O — 20-fold lower, 200 nM
- CC[C@H](C)[C@H](NC(=O)[C@H](Cc1ccc(O)cc1)NC(=O)[C@@H]1CCCN1C(=O)[C@H](CCCNC(=N)N)NC(=O)[C@H](CCCNC(=N)N)NC(=O)[C@@H]1CCCN1C(C)=O)C(=O)N[C@@H](CC(C)C)C(=O)O (Ac-PRRPYIL-OH) — 39000-fold lower, 0.1 nM
- CC[C@H](C)[C@H](NC(=O)[C@H](Cc1ccc(O)cc1)NC(=O)[C@@H]1CCCN1C(=O)[C@H](CCCNC(=N)N)NC(=O)[C@@H](N)CCCNC(=N)N)C(N)=O — 3.1-fold higher, 12000 nM
- CC[C@H](C)[C@H](NC(=O)[C@H](Cc1ccc(O)cc1)NC(=O)[C@@H]1CCCN1C(=O)[C@H](CCCNC(=N)N)NC(=O)[C@H](CCCNC(=N)N)NC(=O)[C@@H]1CCCN1C(=O)[C@H](CCCCN)NC(=O)[C@H](CC(N)=O)NC(C)=O)C(=O)N[C@@H](CC(C)C)C(=O)O (Ac-NKPRRPYIL-OH) — far lower, 0.013 nM
- CC(C)C[C@H](NC(=O)[C@H](C)NC(=O)[C@H](Cc1ccc(O)cc1)NC(=O)[C@@H]1CCCN1C(=O)[C@H](CCCNC(=N)N)NC(=O)[C@@H](N)CCCNC(=N)N)C(=O)O (H-RRPYAL-OH) — 870-fold lower, 4.5 nM
- CC[C@H](C)[C@H](NC(=O)[C@H](Cc1ccc(O)cc1)NC(=O)[C@@H]1CCCN1C(=O)[C@H](C)NC(=O)[C@@H](N)CCCN=C(N)N)C(=O)N[C@@H](CC(C)C)C(=O)O — 1900-fold lower, 2.1 nM
- CC[C@H](C)[C@H](NC(=O)[C@H](Cc1ccc(O)cc1)NC(=O)[C@@H]1CCCN1C(=O)[C@H](CCCNC(=N)N)NC(=O)[C@H](C)N)C(=O)N[C@@H](CC(C)C)C(=O)O — 16000-fold lower, 0.25 nM
- CC[C@H](C)[C@H](NC(=O)[C@H](C)NC(=O)[C@@H]1CCCN1C(=O)[C@H](CCCN=C(N)N)NC(=O)[C@@H](N)CCCN=C(N)N)C(=O)N[C@@H](CC(C)C)C(=O)O — 35-fold lower, 110 nM
- CC[C@H](C)[C@H](NC(=O)[C@H](Cc1ccc(O)cc1)NC(=O)[C@@H]1CCCN1C(=O)[C@H](CCCNC(=N)N)NC(=O)[C@H](CCCNC(=N)N)NC(=O)[C@@H]1CCCN1C(=O)[C@H](CCCCN)NC(=O)[C@H](CC(N)=O)NC(=O)[C@H](CCC(=O)O)NC(C)=O)C(=O)N[C@@H](CC(C)C)C(=O)O (Ac-ENKPRRPYIL-OH) — 32000-fold lower, 0.12 nM

These compounds were tested against Neurotensin receptor type 1 (Mus musculus) (UniProt O88319). Settings: Cerebellum.
Description: Tested for change in binding affinity in neonatal mouse whole brain (minus cerebellum)

`CC[C@@H](C)[C@H](NC(=O)[C@H](Cc1ccc(O)cc1)NC(=O)[C@@H]1CCCN1C(=O)[C@H](CCCNC(=N)N)NC(=O)[C@@H](N)CCCNC(=N)N)C(=O)N[C@@H](CC(C)C)C(=O)O` gave a Ki(1.8x10e-11) of 1 M.
